Test results from patent publication US11730731B2 (INVENTAGE LAB INC., priority 2021, dated 2023).

Key:
Type in all cases: in vivo, mouse
[1] = tested on: murine collagen-induced arthritis (CIA); test: Clinical evaluation of arthritis activity (clinical arthritis index, incidence) in collagen-induced arthritis mice; set-up: CAI-AUC Mean / Incidence-AUC Mean: unit not given here; details: for CAI Mean: naltrexone (Revia Tablet) 10 mg/kg oral once/day
Description: As a model of murine collagen-induced arthritis (CIA), 6 to 10 week-old male mice of DBA/1 J strain was prepared. […] The number of experimental animals per cage was kept under 6, and a cage was exchanged twice a week and feed was supplied.
A 2 mg/mL collagen solution was prepared by dissolving bovine type 2 collagen in 10 mM acetic acid. After emulsifying by mixing 2 mg/mL of Complete Freund's adjuvant and collagen solution in a 1:1 (v/v) ratio, it was intradermally injected into the tail of mouse at a dose of 100 μl/animal (first immunization, day 0). After emulsifying by mixing incomplete Freund's adjuvant […] and collagen solution in a 1:1 (v/v) ratio on the 21th day, it was intradermally injected into the tail of mouse at a dose of 100 μl/animal (the secondary immunization, on the 21th day). After that, mice were randomly divided into groups and assigned to experimental groups.
The refrigerated test substance was standed at room temperature 1 hour before administration and dissolved in 0.15 mL of water for injection. 0.15 mL of the test substance was filled using a syringe with a 21 G needle. The needle was changed to 23 G within 2 minutes after filling and the mice were injected.
(§1) After administration of the test substance to the collagen-induced arthritis mouse model, the occurrence and level of inflammation were regularly observed from the date of group separation to the end of the experiment (the 41th day). Inflammation level was given a score of 0 to 4 for each paw according to the criteria in Table 4 below, and the sum was used as a clinical arthritis index (CAI).
When the clinical index of each paw was 2 score or higher, it was determined that arthritis occurred, and the incidence was defined as 100% when arthritis occurred in […].
as §1, with “end date” for “end”, “above,” for “below,”
as §1, with “above,” for “below,”

[2] = tested on: murine collagen-induced arthritis (CIA); test: Histological estimation of hind paw tissue, hematoxylin/eosin staining, CIA mice; set-up: scale not given here; details: day 41
Description: (§2) Mice were sacrificed on the 41th day, which is the end of the experiment, and the tissues of the hind paws were stained with hematoxylin/eosin. Hematoxylin/eosin staining was used to evaluate the activity of inflammation in the arthritic tissue, and toluidine blue staining was performed to confirm the histological therapeutic effect on cartilage destruction.
The hind paw tissue of the mouse was stained with hematoxylin/eosin, and 4 sites (100 magnification) for each tissue were photographed. Two or more investigators evaluated the items of synovial hyperplasia, pannus formation, cartilage destruction, and bone erosion for hematoxylin/eosin staining. The scoring criteria for each item were described in Table 7, and the average score of 4 sites was calculated as the score of each tissue.
Hematoxylin/eosin staining was performed and evaluated in the same manner as in Example 2.3. (1) above, and the score for items of synovial hyperplasia, pannus formation, cartilage destruction, and bone erosion was calculated by scoring each tissue as the average of the score of 4 sites based on Table 7 above.

[3] = tested on: murine collagen-induced arthritis (CIA); test: Histological estimation of hind paw tissue, toluidine blue staining, CIA mice; set-up: scale not given here; details: day 41
Description: as §2
The hind paw tissue of the mouse was stained with toluidine blue, and 4 sites (100 magnification) for each tissue were photographed. Two or more investigators evaluated the items of matrix staining, surface regularity, and cartilage thickness. The scoring criteria for each item was described in Table 9, and the average score of 4 sites was calculated as the score of each
(§3) In the same manner as in Example 2.3. (2), the hind paw tissue of the mouse was stained with toluidine blue, and items such as photographing and matrix staining, surface regularity, and cartilage thickness were evaluated. The scoring criteria for each item were described in Table 9, and the average score of 4 sites was calculated as the score of each tissue.
as §3, with “2.3. (2) above,” for “2.3. (2),”, “item is” for “item were”

[4] = Example 3, CIA mouse, MTX 1 mg/kg ip twice/week, Xeljanz 10 mg/kg oral once/day, MTX 1 mg/kg + Q-DDS 3 mg/mouse
[5] = Example 2, CIA mouse, methotrexate 1 mg/kg ip twice/week, naltrexone 10 mg/kg oral once/day, naltrexone DDS 3 mg/mouse sc once on day 23
[6] = Example 2, CIA mouse, methotrexate 1 mg/kg ip twice/week, naltrexone DDS 3 mg/mouse sc once on day 23
[7] = Example 2, CIA mouse, MTX 1 mg/kg, naltrexone 10 mg/kg oral, naltrexone DDS 3 mg/mouse

Compound	CAI (D41) Mean [1, 4]	CAI-AUC Mean [1, 4]	Incidence (%) Mean [1, 4] [%]	Incidence-AUC Mean [1, 4]	Bone erosion score Mean (hematoxylin/eosin) [2, 4]	Cartilage destruction score Mean (hematoxylin/eosin) [2, 4]	Pannus formation score Mean (hematoxylin/eosin) [2, 4]	Synovial hyperplasia score Mean (hematoxylin/eosin) [2, 4]	Cartilage thickness score Mean (toluidine blue) [3, 4]	Matrix staining score Mean (toluidine blue) [3, 4]	Surface regularity score Mean (toluidine blue) [3, 4]	Incidence (%) Mean [1, 5] [%]	CAI Mean [1, 6]	Bone erosion score Mean (hematoxylin/eosin) [2, 7]	Cartilage destruction score Mean (hematoxylin/eosin) [2, 7]	Pannus formation score Mean (hematoxylin/eosin) [2, 7]	Synovial hyperplasia score Mean (hematoxylin/eosin) [2, 7]	Cartilage thickness score Mean (toluidine blue) [3, 7]	Matrix staining score Mean (toluidine blue) [3, 7]	Surface regularity score Mean (toluidine blue) [3, 7]	other results
C[C@@H]1CCN(C(=O)CC#N)C[C@@H]1N(C)c1ncnc2[nH]ccc12 [Xeljanz ®, Tofacitinib]	6.25	74.50	27.5	263.8	1.13	1.38	1.13	1.56	0.56	1.42	1.13	–	–	–	–	–	–	–	–	–	–
CN(Cc1cnc2nc(N)nc(N)c2n1)c1ccc(C(=O)N[C@@H](CCC(=O)O)C(=O)O)cc1 [Methotrexate, methotrexate]	6.35	71.20	30.0	170.0	0.92	1.02	0.92	1.38	0.38	1.15	1.02	20.83	5.92	0.08	0.50	0.14	0.91	0.11	0.61	0.34	CAI-AUC Mean [1, 5]: 46.6; Incidence-AUC Mean [1, 5]: 185.4
O=C1CC[C@@]2(O)[C@H]3Cc4ccc(O)c5c4[C@@]2(CCN3CC2CC2)[C@H]1O5 [Naltrexone, 17-(cyclopropylmethyl)-4,5α-epoxy-3,14-dihydroxymorphinan-6-one]	–	–	–	–	–	–	–	–	–	–	–	41.67	8.25	0.58	0.98	0.58	1.27	0.39	0.92	0.80	–
